The values that follow come from US20220323406A1, “METHODS AND COMPOSITIONS FOR DIFFERENTIATING STEM CELLS” (Massachusetts Institute of Technology, priority 2019, published 2022).

In assay [1] the test system is ENR+CD organoids (ISC to Paneth cell differentiation). Description: Primary screen: basal (non-stimulated) lysozyme secretion LYZ.NS, 2.5-D 384-well ENR+CD organoid differentiation. The format is cell-based, mouse. From the text:
(§1) High-throughput screening.

Another assay concerns ENR+CD organoids. Description: Primary screen: ATP (CellTiter-Glo 3D, CTG) cell number/viability, 2.5-D 384-well ENR+CD organoids.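 Note: compounds given at plating and again on day 3 over a 6-day differentiation from ENR+CV stem-cell-enriched precursors, ATP measured on day 6, plate median as control.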
Assay [2] relates to ENR+CD organoids (ISC to Paneth cell differentiation). The assay can be described thus: Primary screen: CCh-stimulated lysozyme secretion LYZ.S, 2.5-D 384-well ENR+CD organoid differentiation. Format: cell-based, mouse. The note with it: primary screen.
From the text: as §1

Where [3] appears, read: primary screen, dose 0.08 uM, FC relative to plate median.
The mark [4] stands for this setting: primary screen, dose 0.08 uM, standard z score.
[5] abbreviates: primary screen, dose 0.40 uM, FC relative to plate median.
Where [6] appears, read: primary screen, dose 0.40 uM, standard z score.
Where [7] appears, read: primary screen, dose 2.00 uM, FC relative to plate median.
Where [8] appears, read: primary screen, dose 2.00 uM, standard z score.
Where [9] appears, read: primary screen, dose 10.00 uM, FC relative to plate median.
[10] abbreviates: primary screen, dose 10.00 uM, standard z score.
[11] abbreviates: primary screen, standard z score, dose 0.40 uM.
Where [12] appears, read: primary screen, standard z score, dose 2.00 uM.
Setting [13] is: primary screen, standard z score, dose 10.00 uM.
The mark [14] stands for this setting: primary screen, standard z score, dose 0.08 uM.

Structures are written as SMILES. Counter-ions that a name gives are not always drawn.

With `Cc1cn([C@H]2C=C[C@@H](CO)O2)c(=O)[nH]c1=O` [Stavudine (d4T)], the Dose.FC.LYZ.NS is listed as 0.071 log2 fold change in assay [1] (setting [3]), 0.003 log2 fold change in assay [1] (setting [5]), 0.009 log2 fold change in assay [1] (setting [7]) and −0.095 log2 fold change in assay [1] (setting [9]). The Z.LYZ.NS in assay [1] (setting [4]) is listed as 0.620; in assay [1] (setting [6]), 0.027; in assay [1] (setting [8]) it was 0.074; in assay [1] (setting [10]), −0.828. For the same compound, the Dose.FC.CTG in the assay on ENR+CD organoids (setting [3]) is 0.095 log2 fold change; with ENR+CD organoids (setting [5]), 0.147 log2 fold change; in the assay with ENR+CD organoids (setting [7]), 0.075 log2 fold change; with ENR+CD organoids (setting [9]) it was −0.075 log2 fold change. For the same compound, the Z.CTG is 0.226 in the assay on ENR+CD organoids (setting [4]), 0.351 in the assay with ENR+CD organoids (setting [6]), 0.179 in the assay on ENR+CD organoids (setting [8]) and −0.179 with ENR+CD organoids (setting [10]). Further, the Dose.FC.LYZ.S was 0.134 log2 fold change in assay [2] (dose 0.08 uM, FC relative to plate median); 0.001 log2 fold change in assay [2] (dose 0.40 uM, FC relative to plate median); −0.003 log2 fold change in assay [2] (dose 2.00 uM, FC relative to plate median); −0.120 log2 fold change in assay [2] (dose 10.00 uM, FC relative to plate median).
On to `CCCCN1CCCCC1C(=O)Nc1c(C)cccc1C` (centres unmarked) [Bupivacaine HCl], for which the Dose.FC.LYZ.NS in assay [1] (primary screen, dose 0.08 uM) was 0.002 log2 fold change; in assay [1] (primary screen, dose 0.40 uM), −0.100 log2 fold change; in assay [1] (primary screen, dose 2.00 uM), −0.137 log2 fold change; in assay [1] (primary screen, dose 10.00 uM), −0.195 log2 fold change. Besides, the “Z.LYZ.NS (standard z score)” value in assay [1] (primary screen, dose 0.08 uM) came to 0.016. Besides, the Z.LYZ.NS in assay [1] (setting [11]) is −0.871; in assay [1] (setting [12]) it was −1.196; in assay [1] (setting [13]), −1.700. Further, the Dose.FC.CTG in the assay on ENR+CD organoids (primary screen, dose 0.08 uM) is listed as −0.003 log2 fold change; in the assay with ENR+CD organoids (primary screen, dose 0.40 uM) it was −0.217 log2 fold change; in the assay on ENR+CD organoids (primary screen, dose 2.00 uM), −0.300 log2 fold change; in the assay with ENR+CD organoids (primary screen, dose 10.00 uM), −0.364 log2 fold change. Further, the Dose.FC.LYZ.S is reported as 0.082 log2 fold change in assay [2] (dose 0.08 uM), −0.169 log2 fold change in assay [2] (dose 0.40 uM), −0.210 log2 fold change in assay [2] (dose 2.00 uM) and −0.295 log2 fold change in assay [2] (dose 10.00 uM).
For `C=CC(=O)Nc1cccc(Nc2nc(Nc3ccc(Oc4ccnc(C(=O)NC)c4)cc3)ncc2F)c1` [CNX-774], the Dose.FC.LYZ.NS in assay [1] (primary screen, dose 0.08 uM) is on record as 0.075 log2 fold change; in assay [1] (primary screen, dose 0.40 uM) it was −0.008 log2 fold change; in assay [1] (primary screen, dose 2.00 uM), 0.158 log2 fold change; in assay [1] (primary screen, dose 10.00 uM), −0.043 log2 fold change. Also, the Z.LYZ.NS is recorded as 0.655 in assay [1] (setting [14]), −0.067 in assay [1] (setting [11]), 1.378 in assay [1] (setting [12]) and −0.376 in assay [1] (setting [13]). Also, the Dose.FC.CTG with ENR+CD organoids (primary screen, dose 0.08 uM) is listed as 0.259 log2 fold change; in the assay with ENR+CD organoids (primary screen, dose 0.40 uM), 0.177 log2 fold change; with ENR+CD organoids (primary screen, dose 2.00 uM), −0.109 log2 fold change; in the assay on ENR+CD organoids (primary screen, dose 10.00 uM), −0.081 log2 fold change. Also, the Z.CTG in the assay on ENR+CD organoids (setting [14]) was 0.619; in the assay on ENR+CD organoids (setting [11]), 0.422; with ENR+CD organoids (setting [12]), −0.260; in the assay on ENR+CD organoids (setting [13]), −0.194. Besides, the Dose.FC.LYZ.S is recorded as 0.014 log2 fold change in assay [2] (dose 0.08 uM), −0.027 log2 fold change in assay [2] (dose 0.40 uM), 0.082 log2 fold change in assay [2] (dose 2.00 uM) and −0.089 log2 fold change in assay [2] (dose 10.00 uM).
